For test [1], the system named is GDNF release by C6 glioma cells. Description: GDNF release by conventional ELISA in conditioned media of C6 glioma cells. Format: cell-based. To be noted: 10 μM compound, 48 h, 0.1% DMSO vehicle, representative experiment; for fold induction at 10 µM: C6 glioma, read-out: GDNF Increase ± SEM (fold/vehicle control). The source says:
Conventional ELISAs were used to determine compound-induced increases of GDNF concentration in conditioned media of C6 glioma cells, and have afforded increased sensitivity compared to in-situ ELISA in our hands. C6 cells were purchased from ATCC (Manassas, Va.) at passage 37 and were used between passages 41-46. This requirement for a narrow range of passages is based on an observed decrease in magnitude of GDNF release with age of the cell line, and is consistent with reported behavior of C6 cells. All incubations were conducted at 37° C. in a humidified atmosphere containing 5% CO2. GDNF release was measured for each compound in 3 independent experiments. Briefly, C6 cells were seeded into sterile 12-well culture plates (Falcon) at a density of 300,000 cells per well and were recovered for 24 h in 1mL complete growth medium (94% high glucose DMEM, 5% FBS, 1% penicillin/streptomycin). Wells were then washed with 1mL sterile DPBS and were incubated for an additional 24 h with 0.5 mL low-serum medium (98.5% high glucose DMEM, 0.5% FBS, 1% penicillin/streptomycin). On the following day, experimental compounds or DMSO vehicle control were added each to duplicate wells in an additional 0.5 mL of low-serum medium. The final concentration of each compound was 10 μM in 1mL low-serum medium containing 0.1% DMSO. Plates were incubated with compounds and vehicle control for 48 h. Conditioned media were then collected from each well and GDNF concentrations were measured in triplicate on 96-well ELISA plates using the GDNF Emax Immunoassay System from Promega (Madison, Wis.) according to the manufacturer's instructions. A Bio-Tek H1MF plate reader (Burlington, Vt.) was used to measure absorbance from the resulting colorimetric reaction. Total GDNF release for each compound was calculated from the standard curve using Microsoft Excel. Data are normalized to the vehicle control and are thus presented as fold increase of GDNF concentration in experimental wells over that of the vehicle control. Each reported compound afforded a statistically significant increase of GDNF release over the DMSO control in each of three independent experiments conducted on separate days unless otherwise noted. Statistical significance within each experiment was determined by ANOVA followed by Tukey's post-hoc analysis using GraphPad Prism. Because of the naturally high variability of GDNF release values between experiments, data presented herein are intra-assay means from a representative experiment ±intra-assay standard error of the mean (SEM) calculated from biological replicates. Cytotoxicity for each compound was below 20% as measured by LDH levels in conditioned media (Cytotox 96, Promega).
All results (Table 2) represent fold-increase of GDNF release by C6 glioma cells treated with the indicated compound for 48 hours, normalized to the vehicle control. Results are presented from a representative experiment and were determined to be statistically significant (ANOVA) compared to the vehicle control.
Background: In an ELISA, binding on a coated surface is turned into a signal by an enzyme label.

In test [2] the test system is GDNF release from C6 glioma cells. The experiment in a line: GDNF in-situ ELISA in C6 glioma cells. Format: cell-based. The conditions noted are these: 10 μM compound, 48-hour incubation, fold over control release, corrected for pre-treatment release; for fold induction at 10 µM: C6 glioma, 48 h, read-out: Fold-Increase of GDNF Concentration. The procedure: The GDNF Emax Immunoassay System from Promega (Madison, Wis.) was used to determine small molecule induced GDNF release from C6 glioma cells (ATCC, Manassas, Va.) with the following protocol. A 96-well ELISA plate was sterilized with UV for 30 minutes. The plate was coated with 100 μl/well of the anti-GDNF monoclonal antibody solution in carbonate coating buffer prepared per the manufacturer's instructions, and incubated overnight at 4° C. The antibody coating buffer was removed from the plate, which was then blocked according to the instructions in the kit. The plate was then incubated with 200 μl/well complete growth medium ([…], 5% FBS, 1% penicillin/streptomycin) for 2×1 h at rt to remove residue of the blocking buffer. After these washes were complete, fresh culture media was added to the wells. C6 cells were seeded at a density of 11,000 cells/well, with a total volume of approximately 150 μl in each well. The plate was incubated at 37° C. in an atmosphere containing 5% CO2. After 24 hours, complete growth medium was replaced with low serum medium (98.5% DMEM, 0.5% FBS, 1% penicillin/streptomycin) and the plate was incubated overnight for cellular synchronization. On the following day, cells were treated with experimental compounds for the indicated time. We used 10 μM concentrations of the tested compounds during a 48-hour incubation. Simultaneously with initiation of treatment, cells were removed from pre-treatment control wells with 5×200 μL washes of TBST (to control for basal GDNF release before the treatment period), and low-serum medium was added to these wells. 6 hours prior to stopping treatment with experimental compounds, the GDNF standard was added to the plate per the manufacturer's instructions. To terminate the treatment, the plate was washed extensively with 200 μl/well TBST washing buffer 5 times, which removed the cells. GDNF release for each well was measured according to GDNF Emax Immunoassay system instructions, and a plate reader was used to measure absorbance at 450 nm. Total GDNF release is calculated from the standard curve using Microsoft Excel. The listed values in Table 1 are presented as fold-increase of release of GDNF over control release of GDNF, corrected for pre-treatment release by subtracting from all values the mean amount of GDNF released in pre-treatment control wells. Statistical significance was determined using the Student's t-test.

As to “6-ethyl-2-(2-(5-fluoro-1H-indol-3-yl)ethyl)-2-azabicyclo[2.2.2]oct-5-ene [Compound 91]”, the “GDNF Increase ± SEM (fold/vehicle control)” value in test [1] was 13.61 ± 0.62 fold/vehicle control. `CCC1CC2C=CC1N(CCc1c[nH]c3ccc(OC)cc13)C2` (racemic) [Compound 10b, exo-7-ethyl-2-[2-(5-methoxy-1H-indol-3-yl)ethyl]-2-azabicyclo[2.2.2]oct-5-ene]: in test [2], the fold induction at 10 µM is 2.2 ± 0.2. The same measure, in the same setting: with `CCC1CC2C=CC1N(CCCc1c[nH]c3ccccc13)C2` (racemic) [Compound 12b, endo-2-[3-(1H-indol-3-yl)propyl]-7-ethyl-2-azabicyclo [2.2.2] oct-5-ene] the figure was 1.5.

In the case of `CCC1CC2C=CC1N(CCc1c[nH]c3ccc(OC)cc13)C2` (racemic) [Compound 12c, endo-7-ethyl-2-[2-(5-methoxy-1H-indol-3-yl)ethyl]-2-azabicyclo [2.2.2]oct-5-ene], in test [2], the “Fold-Increase of GDNF Concentration” value turned out to be 2.1 ± 0.1 fold.

Turning to `CCC1CC2C=CC1N(CCc1c[nH]c3c(F)cccc13)C2` (racemic) [Compound 69, exo-7-ethyl-2-(2-(7-fluoro-1H-indol-3-yl)ethyl)-2-azabicyclo [2.2.2]oct-5-ene], in test [1], the fold induction at 10 µM amounted to 12.13 ± 0.01. As for `CCC1CC2C=CC1N(CCc1c[nH]c3cccc(F)c13)C2` (racemic) [Compound 70, exo-7-ethyl-2-(2-(4-fluoro-1H-indol-3-yl)ethyl)-2-azabicyclo[2.2.2]oct-5-ene], the fold induction at 10 µM in test [1] is 15.8 ± 0.65. Regarding `CCC1CC2C=CC1N(CCc1c[nH]c3cc(F)ccc13)C2` (racemic) [Compound 71, exo-7-ethyl-2-(2-(6-fluoro-1H-indol-3-yl)ethyl)-2-azabicyclo[2.2.2]oct-5-ene], the fold induction at 10 µM in test [1] stood at 16.5 ± 0.3. Same read-out and setting: with `CCC1CC2C=CC1N(CCc1c[nH]c3ccc(F)cc13)C2` (racemic) [Compound 72, exo-7-ethyl-2-(2-(5-fluoro-1H-indol-3-yl)ethyl)-2-azabicyclo[2.2.2]oct-5-ene] the figure was 16.2 ± 0.41. The same measure, in the same setting: under `CCC1CC2C=CC1N(CCc1csc3ccccc13)C2` (racemic) [Compound 73, exo-2-(2-(benzo[b]thiophen-3-yl)ethyl)-7-ethyl-2-azabicyclo[2.2.2]oct-5-ene] stands 9.87 ± 0.22; under `CCCC1CC2C=CC1N(CCc1c[nH]c3ccccc13)C2` (racemic) [Compound 75, endo-2-(2-(1H-indol-3-yl)ethyl)-7-propyl-2-azabicyclo [2.2.2]oct-5-ene], 14.8 ± 0.85. For `C1=CC2C(Cc3ccccc3)CC1CN2CCc1c[nH]c2ccccc12` (racemic) [Compound 76, endo-2-(2-(1H-indol-3-yl)ethyl)-7-benzyl-2-azabicyclo[2.2.2]oct-5-ene], the fold induction at 10 µM in test [1] amounted to 12.8 ± 0.85.

For `C1=CC2C(Cc3ccccc3)CC1CN2CCc1c[nH]c2ccccc12` (racemic) [Compound 77, exo-2-(2-(1H-indol-3-yl)ethyl)-7-benzyl-2-azabicyclo[2.2.2]oct-5-ene], the “GDNF Increase ± SEM (fold/vehicle control)” value in test [1] is reported as 13.22 ± 0.08 fold/vehicle control. For `CCCC1CC2C=CC1N(CCc1c[nH]c3ccc(F)cc13)C2` (racemic) [Compound 78, endo-2-(2-(5-fluoro-1H-indol-3-yl)ethyl)-7-propyl-2-azabicyclo[2.2.2]oct-5-ene], the “GDNF Increase ± SEM (fold/vehicle control)” value in test [1] is given as 14.39 ± 0.51 fold/vehicle control. Turning to `CCCC1CC2C=CC1N(CCc1c[nH]c3ccc(F)cc13)C2` (racemic) [Compound 79, exo-2-(2-(5-fluoro-1H-indol-3-yl)ethyl)-7-propyl-2-azabicyclo[2.2.2]oct-5-ene], the fold induction at 10 µM in test [1] stood at 14.6 ± 0.21.

`C1=CC2C(Cc3cccnc3)CC1CN2CCc1c[nH]c2ccccc12` (racemic) [Compound 80, exo-2-(2-(1H-indol-3-yl)ethyl)-7-(pyridin-3-ylmethyl)-2-azabicyclo[2.2.2]oct-5-ene]: in test [1], the fold induction at 10 µM amounted to 7.02 ± 1.31. Same read-out and setting: under `CCC1CC2C=CC1N(CCc1cn(S(=O)(=O)c3ccc(C)cc3)c3ccccc13)C2` (racemic) [Compound 82, exo-7-ethyl-2-(2-(1-tosyl-1H-indol-3-yl)ethyl)-2-azabicyclo[2.2.2]oct-5-ene] stands 13.6 ± 1.41; under `CCCCC1CC2C=CC1N(CCc1c[nH]c3ccccc13)C2` (racemic) [Compound 83, endo-2-(2-(1H-indol-3-yl)ethyl)-7-butyl-2-azabicyclo[2.2.2]oct-5-ene], 12.8 ± 0.5. Consider `CCCCC1CC2C=CC1N(CCc1c[nH]c3ccccc13)C2` (racemic) [Compound 84, exo-2-(2-(1H-indol-3-yl)ethyl)-7-butyl-2-azabicyclo[2.2.2]oct-5-ene], for which, in test [1], the “GDNF Increase ± SEM (fold/vehicle control)” value was 12.65 ± 0.66 fold/vehicle control. Regarding `Fc1ccc2[nH]cc(CCN3CC4C=CC3C(Cc3ccccc3)C4)c2c1` (racemic) [Compound 85, exo-7-benzyl-2-(2-(5-fluoro-1H-indol-3-yl)ethyl)-2-azabicyclo[2.2.2]oct-5-ene], the fold induction at 10 µM in test [1] amounted to 13.2 ± 2.03. The same measure, in the same setting: with `C1=CC2C(COCc3ccccc3)CC1CN2CCc1c[nH]c2ccccc12` (racemic) [Compound 86, endo-2-(2-(1H-indol-3-yl)ethyl)-7-(benzyloxymethyl)-2-azabicyclo[2.2.2]oct-5-ene] the figure was 13.8 ± 2.01. Regarding `CCC1CC2C=CC1N(CCc1c[nH]c3cccc(F)c13)C2` (racemic) [Compound 87, endo-7-ethyl-2-(2-(4-fluoro-1H-indol-3-yl)ethyl)-2-azabicyclo[2.2.2]oct-5-ene], in test [1], the “GDNF Increase ± SEM (fold/vehicle control)” value was found to be 10.87 ± 0.84 fold/vehicle control.

In the case of `CCC1CC2C=CC1N(CCc1c[nH]c3c(F)cccc13)C2` (racemic) [Compound 89, endo-7-ethyl-2-(2-(7-fluoro-1H-indol-3-yl)ethyl)-2-azabicyclo[2.2.2]oct-5-ene], the “GDNF Increase ± SEM (fold/vehicle control)” value in test [1] amounted to 14.71 ± 0.11 fold/vehicle control. Still for that read-out and setting: under `CCC1CC2C=CC1N(CCc1csc3ccccc13)C2` (racemic) [Compound 90, endo-2-(2-(benzo[b]thiophen-3-yl)ethyl)-7-ethyl-2-azabicyclo[2.2.2]oct-5-ene] stands 11.86 ± 0.01 fold/vehicle control. `CCCC1CC2C=CC1N(CCc1c[nH]c3ccccc13)C2` (stereo not drawn) [Compound 74, exo-2-(2-(1H-indol-3-yl)ethyl)-7-propyl-2-azabicyclo[2.2.2]oct-5-ene]: the fold induction at 10 µM in test [1] was determined as 7.11 ± 1.17. Consider `CCC1CC2C=CC1N(CCCc1c[nH]c3ccccc13)C2` (stereo not drawn) [Compound 81, exo-2-(3-(1H-indol-3-yl)propyl)-7-ethyl-2-azabicyclo[2.2.2]oct-5-ene], for which the “GDNF Increase ± SEM (fold/vehicle control)” value in test [1] was 12.55 ± 0.05 fold/vehicle control.
